Measurements taken from patent US12291504B2 (University of Pittsburgh—Of the Commonwealth System of …, priority 2018, dated 2025).

Columns and labels:
[1] = biological target: T1, SULT1A3 F222A, H226A (Homo sapiens, UniProt P0DMM9, F222A/H226A); assay: Binding-site mutation effect on Ki CMP8, F222A, H226A; format: biochemical; settings: H226A versus wild type
T1 construct: N-His/GST/MBP triple-tag (N, cleaved yes); made in house; host or cells: E. coli BL21(DE3)
Procedure: Initial-Rate Studies. Initial-rate parameters for the labeled or mutant SULT1A3 constructs were determined using a previously described 1-HP assay (25). Briefly, reactions were initiated by addition of PAPS (0.50 mM, 17×Km) to a solution containing enzyme (20 nM, active sites), 1-HP (2.0 μM, ˜24×Km), and KPO4 (50 mM), pH 7.5, 25±2° C. Reactions were monitored via fluorescence change associated with the conversion of 1-HP to 1-HP-S (λex=325 nm, λem=370 nm). Keq for the 1-HP sulfonation reaction is […]. Given the reaction conditions outlined above, ≥99% of 1-HP is converted to 1-HP-S, and ˜0.4% of PAPS is converted to PAP at equilibrium. […] Reaction progress curves were analyzed to obtain initial-rate parameters as described previously (26,27).
Inhibition studies. Inhibition parameters were determined under conditions identical to those described above (see, Initial-Rate Studies) except that [1-HP] was increased to 5.0 μM (˜61×Km) and inhibitor concentration was varied between 0.20-20×Ki. Ki was obtained using a least-squares fit to the following partial inhibition equation (25,28): v=kcat·(Ki+(1/kcat inh)·[I])/(Ki+[I]), where kcat inh is enzyme turnover at saturating substrates and allosteric inhibitor.
Confirming the Structure. The structure was validated by testing its ability to predict the consequences of mutations on the initial-rate parameters of the enzyme. […]

[2] = biological target: SULT1A3 spin-labeled at Cys 116 (Homo sapiens, UniProt P0DMM9, Q116C); assay: Initial-rate parameters, spin-labeled SULT1A3 mutant 116
Chain of SULT1A3 spin-labeled at Cys 116 (P0DMM9 whole entry Q116C): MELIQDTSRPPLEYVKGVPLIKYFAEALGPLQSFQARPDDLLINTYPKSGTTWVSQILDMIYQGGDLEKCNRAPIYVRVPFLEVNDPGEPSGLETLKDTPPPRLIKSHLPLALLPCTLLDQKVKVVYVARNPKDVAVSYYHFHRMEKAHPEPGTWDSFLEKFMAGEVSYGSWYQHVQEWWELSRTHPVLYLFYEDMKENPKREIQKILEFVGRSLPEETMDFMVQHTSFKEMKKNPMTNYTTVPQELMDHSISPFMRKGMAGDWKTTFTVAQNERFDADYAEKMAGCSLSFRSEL
Procedure: Covalent Tagging of SULT1A3 Cys Constructs. Labeling of the SULT1A3 Cys constructs was performed as described previously (17,18,21). Briefly, 3-maleimido-PROXYL (spin label) or N-cyclohexylmaleimide (diamagnetic control) was added to an enzyme containing solution at 20-fold excess over reactive Cys. Unreacted Cys was monitored using DNTB (17,18,21); reactions were considered complete when >98% of the Cys was labeled. Reaction conditions: SULT1A3 (50 μM, monomer), 3-maleimido-PROXYL or N-cyclohexylmaleimide (1.0 mM), PAP (0.50 mM), KPO4 (50 mM), pH 7.5, 4±2° C. To prepare samples for NMR, reaction mixtures were dialyzed three times against 40 volumes of PAP (0.50 mM), KPO4 (50 mM), pD 7.4, D2O (>95%), 4±2° C.
Initial-Rate Studies. Initial-rate parameters for the labeled or mutant SULT1A3 constructs were determined using a previously described 1-HP assay (25). […] Reactions were monitored via fluorescence change associated with the conversion of 1-HP to 1-HP-S (λex=325 nm, λem=370 nm). Keq for the 1-HP sulfonation reaction is −250. Given the reaction conditions outlined above, ≥99% of 1-HP is converted to 1-HP-S, and ˜0.4% of PAPS is converted to PAP at equilibrium. […] Reaction progress curves were analyzed to obtain initial-rate parameters as described previously (26,27).

[3] = biological target: Dog (1D1) (Canis lupus familiaris, UniProt A0A8I3RXJ1); assay: Inhibition of SULT1A3 homologues in different species: Dog; format: biochemical
Chain of Dog (1D1) (A0A8I3RXJ1 entry or part of it): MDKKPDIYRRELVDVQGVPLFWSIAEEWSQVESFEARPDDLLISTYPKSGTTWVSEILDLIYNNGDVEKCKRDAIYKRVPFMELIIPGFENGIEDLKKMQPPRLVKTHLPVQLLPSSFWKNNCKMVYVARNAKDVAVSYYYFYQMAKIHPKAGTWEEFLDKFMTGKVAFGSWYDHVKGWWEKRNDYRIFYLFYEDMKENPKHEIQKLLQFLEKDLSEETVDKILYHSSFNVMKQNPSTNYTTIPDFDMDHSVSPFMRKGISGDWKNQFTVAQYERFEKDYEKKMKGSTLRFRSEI
Procedure: (§1) Compounds 12, 23 and 25 were also tested for Inhibition of SULT1A3 in different species. Inhibition of SULT1A3 Homologues in Different Species. SULT1A3 is only expressed in humans and higher primates. SULT1D1 is the isoform expressed in dogs and rodents that sulfonates neurotransmitters and is most similar to SULT1A3. Three synthesized allosteres (12, 23, and 25) were tested against both 1A3 and 1D1 from different species in order to explore testing in animal models. […] Mice have been engineered such that their SULT1A1/2 enzymes have been knocked out and replaced with the human versions of those isoforms.

[4] = biological target: T2, SULT2A1 (Homo sapiens, UniProt Q06520); assay: SULT2A1 inhibition test; format: biochemical; settings: at 50 uM
T2 sequence (Q06520 1-285): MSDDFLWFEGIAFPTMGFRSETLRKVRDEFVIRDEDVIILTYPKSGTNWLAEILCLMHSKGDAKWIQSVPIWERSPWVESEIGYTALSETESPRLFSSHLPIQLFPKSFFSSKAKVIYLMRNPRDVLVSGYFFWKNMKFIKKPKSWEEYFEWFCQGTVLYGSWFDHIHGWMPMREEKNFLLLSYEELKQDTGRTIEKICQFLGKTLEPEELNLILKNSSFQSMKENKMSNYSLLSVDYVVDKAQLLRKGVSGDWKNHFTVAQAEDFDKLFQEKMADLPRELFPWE

[5] = biological target: Green Monkey (1A3) (Chlorocebus sabaeus, UniProt Z9LO20H8W3); assay: Inhibition of SULT1A3 homologues in different species: Green Monkey; format: biochemical
Chain of Green Monkey (1A3) (Z9LO20H8W3 1-295): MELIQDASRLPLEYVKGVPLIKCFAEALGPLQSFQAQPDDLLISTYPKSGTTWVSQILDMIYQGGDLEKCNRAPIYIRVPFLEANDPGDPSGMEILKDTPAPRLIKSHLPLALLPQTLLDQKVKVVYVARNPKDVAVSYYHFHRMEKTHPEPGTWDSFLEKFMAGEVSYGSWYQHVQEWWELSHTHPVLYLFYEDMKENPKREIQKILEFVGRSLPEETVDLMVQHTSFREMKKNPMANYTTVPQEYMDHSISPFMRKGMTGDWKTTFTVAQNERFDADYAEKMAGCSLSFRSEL
Procedure: (§2) Compounds 12, 23 and 25 were also tested for Inhibition of SULT1A3 in different species.
as §1, with “Inhibition” for “Compounds 12, 23 and 25 were also tested for Inhibition of SULT1A3 in different species. Inhibition”

[6] = biological target: T3, SULT1E1 (Homo sapiens, UniProt P49888); assay: SULT1E1 inhibition test; format: biochemical; settings: at 50 uM
T3 sequence (P49888 1-294): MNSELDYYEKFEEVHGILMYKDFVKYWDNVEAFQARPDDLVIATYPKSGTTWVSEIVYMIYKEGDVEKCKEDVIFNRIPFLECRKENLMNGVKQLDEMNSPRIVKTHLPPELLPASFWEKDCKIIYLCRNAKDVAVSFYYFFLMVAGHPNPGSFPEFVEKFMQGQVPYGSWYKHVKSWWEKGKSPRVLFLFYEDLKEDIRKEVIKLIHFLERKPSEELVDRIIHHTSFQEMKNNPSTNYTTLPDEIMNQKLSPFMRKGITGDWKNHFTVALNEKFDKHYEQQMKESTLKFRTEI

[7] = biological target: Mouse (1D1) (Mus musculus, UniProt Q3UZZ6); assay: Inhibition of SULT1A3 homologues in different species: Mouse; format: biochemical
Chain of Mouse (1D1) (Q3UZZ6 whole entry): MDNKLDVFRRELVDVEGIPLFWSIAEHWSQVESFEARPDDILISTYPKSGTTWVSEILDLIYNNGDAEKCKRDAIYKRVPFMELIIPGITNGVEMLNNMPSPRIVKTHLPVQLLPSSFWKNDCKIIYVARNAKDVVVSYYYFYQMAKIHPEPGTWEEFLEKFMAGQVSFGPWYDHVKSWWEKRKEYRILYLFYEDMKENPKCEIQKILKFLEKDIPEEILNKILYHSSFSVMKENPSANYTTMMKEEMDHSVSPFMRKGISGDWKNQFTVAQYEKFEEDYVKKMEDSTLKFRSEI
Procedure: as §2
as §1, with “Inhibition” for “Compounds 12, 23 and 25 were also tested for Inhibition of SULT1A3 in different species. Inhibition”

T1 sequence (P0DMM9 whole entry F222A/H226A): as the sequence (P0DMM9 whole entry Q116C) above, with C116Q, F222A, H226A counted along it

SMILES | increase in Ki CMP8 [1] [fold] | Ki [2] [nM] | Dog (1D1) % inh [3] | Ki ([3]; standard error in neighbouring cell) [nM] | inhibition of SULT2A1 [4] | Green Monkey (1A3) % inh [5] | Ki ([5]; parentheses one standard error) [nM] | inhibition of SULT1E1 [6] | Mouse (1D1) % inh [7] | Ki ([7]; parentheses one standard error) [nM]
CC(C)Cc1ccc2cc(CO)ccc2n1 [Compound 8, (2-Isobutylquinolin-6-yl)methanol] | 60 | 37 | – | – | – | – | – | – | – | –
CC(C)Cc1ccc2cc(CCC(N)=O)ccc2n1 [Compound 12] | – | – | 83 (6) % | 77 | no inhibition was detected | 71 (3) % | 170 | no inhibition was detected | 82 (2) % | 79
